Earlier results on one molecule are cited in patent US20230158004A1, “ENTERIC-COATED PREPARATION COMPRISING PIRFENIDONE HAVING IMPROVED SAFETY AND STABILITY, AND METHOD FOR PREPARING SAME” (YUNGJIN PHARM. CO., LTD., priority 2020, published 2023).

For this series the following is noted: healthy adults and patients with idiopathic pulmonary fibrosis, total 1,650 people.

Consider `Cc1ccc(=O)n(-c2ccccc2)c1` [pirfenidone, 5-methyl-1-phenyl-2-(1H)-pyridone], for which the anorexia is on record as 11.4%, the diarrhea is on record as 18.8%, the headache is 10.1% and the indigestion is on record as 16.1%. Moreover, the nausea was 32.4%, the photosensitivity is reported as 9.3% and the rash is 26.2%.
